Measured values: PMC11583597, “Brain uptake pharmacokinetics of albiglutide, dulaglutide, tirzepatide, and DA5-CH in the search for new treatments of Alzheimer’s and Parkinson’s diseases” (Tissue Barriers, 2023)

Key:
[1] = In vivo stability of 125I/14C-IRAs in blood/serum (acid precipitation); set-up: species or system male CD-1 mice; settings: mouse, iv
Method: We measured the stability of the radiolabeled IRAs in brain and blood. Following anesthetization, arterial blood and whole brain were taken at two time points (10 or 60 min) after iv injection of 3 × 10^5 cpm-1×10^6 cpm of ^125I/^14C-IRA in 0.2 ml of BSA/LR. The blood samples were allowed to clot, centrifuged at 3200 ×g for 10 min, and 50 μl of the separated serum was added to 250 μl of BSA-LR. Samples were combined with equal volume 30% TCA (300 μl), mixed, and then centrifuged for 10 min at 5400 ×g. Brains were homogenized in 800 μl of BSA-LR with a bead beater for 30 sec at 4800 rpm twice. Following centrifugation at 5400 ×g for 15 min, a portion of the resulting supernatant was added to an equal volume of 30% TCA, mixed, and then centrifuged at 5400 ×g for 10 min. The radioactivity in the resulting supernatant and pellet (Sup and Pel fractions) for serum and brain was calculated separately, and the percent of radioactivity in the precipitate was calculated using the following equation:(1) %AcidPrecip=100×Pel/Sup+Pel
To correct for degradation that might have occurred during the processing, ^125I/^14C-IRA was added to non-radioactive arterial whole blood or to whole brain and processed as above. The biological samples were corrected for degradation during processing by dividing their values by those for processing control (Pcon) values and multiplying by 100. This can sometimes result in a value greater than 100%.
Immediately after counting the radioactivity, the blood and brains from the 10 min and 6 h time points were processed as described in Section 2.5 for in vivo stability. For further comparison, data from the 1 h time point were taken from the original pharmacokinetic uptake study. The ^125I-IRA brain % acid precipitation (%AP) was divided by the ^125I-IRA serum %AP at each time point to calculate the %AP B/S ratio. This value was multiplied by the B/S ratio for each ^125I-IRA to correct for degradation over the 10 min, 1 h, or 6 h time periods. Corrected AP B/S ratios were then corrected for vascular space by subtracting the ^99mTc-Alb B/S ratio within each mouse for the 10 min and 6 h time points (AP corrected delta B/S ratio). For the 1 h time point, the average ^99mTc-Alb B/S ratio (10.03 μl/g) at 10 min across all ^125I-IRAs was used for correction. The AP corrected delta B/S ratio for each ^125I-IRA was then multiplied by the %Inj/ml within each mouse to calculate the AP corrected delta %Inj/g.

[2] = set-up: species or system male CD-1 mice; settings: mouse, in vivo, iv
Method: Following anesthetization, the jugular vein and right carotid artery were exposed. Mice were given a jugular vein injection of 0.2 ml BSA-LR containing 3 × 10^5 cpm-1×10^6 cpm of an ^125I/^14C-labeled IRA and 5 × 10^5 cpm of ^99mTc-Alb. Blood samples were collected from the carotid artery at various time points from 1 to 60 min after iv injection (see Figure 1). Mice were then decapitated, and their brains were removed and weighed. After clotting, the arterial blood was centrifuged at 3200 ×g for 10 min. Levels of radioactivity in serum (50 μl) and brain were measured in a gamma counter for ^125I and ^99mTc for 3 min. After ^99mTc decay, ^14C-DA5-CH samples were solubilized with Solvable (Sigma), transferred to scintillation vials containing Ecoscint (National Diagnostics) and ^14C was measured in a beta counter. Sample injection checks were taken throughout the course of the study to calculate the mean injected cpm/mouse. To determine the rate of ^125I/^14C-IRA clearance from the serum, the results were expressed as the percentage of an injected dose in each ml of serum (%Inj/ml), which was calculated by dividing the cpm in a ml of serum (cpm/ml serum) by the cpm injected into the mouse (cpm/Inj):
(2) %Inj/ml=100×cpm/mlserum/meancpm/Inj
The log(%Inj/ml) was plotted against time to calculate the rate of clearance from the serum. To calculate the half-time clearance in minutes, the inverse slope […] of the curve for each IRA was multiplied by 0.301 (log10[2]). The blood and brain cpm data were used for the measurement of brain influx and initial volume of distribution in brain as described in Section 2.7.

[3] = set-up: species or system male CD-1 mice; settings: mouse, in vivo, iv; remark: listed apart in the source
Method: Anesthetized mice were co-injected iv with 3 × 10^5 cpm-1×10^6 cpm ^125I/^14C-IRA and 5 × 10^5 cpm of ^99mTc-Alb in 0.2 ml BSA-LR with or without 1 μg of the non-radioactive IRA. Fifteen minutes after iv injection, blood was collected from the right carotid artery, and the whole brain was removed and weighed. Samples were counted for radioactivity. Results were expressed as delta B/S ratios in units of μl/g.

[4] = Long-term (6 h) measurement of brain uptake; assay type: in vivo, male CD-1 mice; settings: mouse, in vivo, iv
Method: Substances that are enzymatically stable in blood and have slow clearance from the circulation can slowly enter the brain using the extracellular pathways.[63],[64] […] Albumin enters the brain by extracellular pathways,[70] and so we used albumin in two ways: we used ^99mTc-Alb circulating for 10 min to measure vascular space and ^99mTc-Alb circulating for 6 h to measure brain uptake by extracellular pathways. This is similar to the time-differential methodology developed by Poduslo and Curran to measure a substance’s vascular space and its uptake rate.[71] Following anesthetization, the jugular vein and right carotid artery were exposed. Mice were given an iv injection of 0.1% BSA-LR containing 1 × 10^6 cpm of ^125I-IRA or 5 × 10^5 cpm of ^99mTc-Alb, which circulated for 6 h. Mice receiving only the ^125I-IRA were given an injection of 5 × 10^5 cpm of ^99mTc-Alb 10 min prior to the end of the 6 h circulation time to act as a vascular marker. A separate set of mice received an iv injection of both 1 × 10^6 cpm of ^125I-IRA and 5 × 10^5 cpm of ^99mTc-Alb that circulated for 10 min. Following the 10 min or 6 h circulation time points, blood and brain were collected as described above. Thus, we had B/S ratios for ^99mTc-Alb measuring vascular space (10 min circulation time) and B/S ratios for ^99mTc-Alb measuring vascular space plus uptake by the extracellular pathways (6 h circulation time) which could be compared to the B/S ratios for the ^125I-IRAs after 10 min and 6 h of circulation.
Immediately after counting the radioactivity, the blood and brains from the 10 min and 6 h time points were processed as described in Section 2.5 for in vivo stability. For further comparison, data from the 1 h time point were taken from the original pharmacokinetic uptake study. The ^125I-IRA brain % acid precipitation (%AP) was divided by the ^125I-IRA serum %AP at each time point to calculate the %AP B/S ratio. This value was multiplied by the B/S ratio for each ^125I-IRA to correct for degradation over the 10 min, 1 h, or 6 h time periods. […]

[5] = human, in vivo; cited from earlier work

CC[C@H](C)[C@H](NC(=O)[C@H](CC(C)C)NC(=O)[C@H](Cc1c[nH]c2ccccc12)NC(=O)[C@H](CCC(N)=O)NC(=O)[C@@H](NC(=O)[C@H](Cc1ccccc1)NC(=O)[C@H](C)NC(=O)[C@H](CCCCNC(=O)COCCOCCNC(=O)COCCOCCNC(=O)CC[C@H](NC(=O)CCCCCCCCCCCCCCCCCCC(=O)O)C(=O)O)NC(=O)[C@H](CCC(N)=O)NC(=O)[C@H](C)NC(=O)[C@@H](NC(=O)[C@H](CCCCN)NC(=O)[C@H](CC(=O)O)NC(=O)[C@H](CC(C)C)NC(=O)C(C)(C)NC(=O)[C@@H](NC(=O)[C@H](CO)NC(=O)[C@H](Cc1ccc(O)cc1)NC(=O)[C@H](CC(=O)O)NC(=O)[C@H](CO)NC(=O)[C@@H](NC(=O)[C@H](Cc1ccccc1)NC(=O)[C@@H](NC(=O)CNC(=O)[C@H](CCC(=O)O)NC(=O)C(C)(C)NC(=O)[C@@H](N)Cc1ccc(O)cc1)[C@@H](C)O)[C@@H](C)O)[C@@H](C)CC)[C@@H](C)CC)C(C)C)C(=O)N[C@@H](C)C(=O)NCC(=O)NCC(=O)N1CCC[C@H]1C(=O)N[C@@H](CO)C(=O)N[C@@H](CO)C(=O)NCC(=O)N[C@@H](C)C(=O)N1CCC[C@H]1C(=O)N1CCC[C@H]1C(=O)N1CCC[C@H]1C(=O)N[C@@H](CO)C(N)=O [Tirzepatide]
Percentage of labeled IRA intact, Serum, 10 min [1]: 100.5 ± 0.0%
Percentage of labeled IRA intact, Serum, 60 min [1]: 99.65 ± 0.1%
Half-Time Serum Clearance (t1/2) [2]: 30.62 min
Whole Brain delta brain/serum ratio, Without unlabeled IRA [3]: -0.16 ± 0.13 µL/g
Amount present in brain at 6 h (AP corrected delta %Inj/g) [4]: 0.005 %Inj/g
half-lives in human serum [5]: 111 to 124 h
